Test results taken from publication PMC10584170, “Machine learning-based phenotypic imaging to characterise the targetable biology of Plasmodium falciparum male gametocytes for the development of transmission-blocking antimalarials” (PLOS Pathogens, 2023).
pIC50: −log10 of the molar value. Read-outs that look alike come from different tables or passages of the source.

Legend:
HepG2 cells = assay: HepG2 cytotoxicity counter-screen; settings: cytotoxic activity against HepG2 cells
[1] = system: P. falciparum female gametocytes; assay: P. falciparum Dual Gamete Formation Assay (PfDGFA), female readout (Pfs25-positive female gametes); assay type: cell-based, Plasmodium falciparum NF54; settings: for Selectivity ratio F: HepG2 Tox50 versus female IC50; for pIC50: PfDGFA, 24 h incubation with gametocytes before induction, female gamete readout, read-out: Female IC50; for HitlevelF: number of replicates with >50% inhibition in the female readout
Method in brief: (§1)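 NF54 mature gametocytes (d14), cpd 24 h 37°C hypoxic gas; trigger: xanthurenic acid ookinete medium + Cy3 anti-Pfs25, 4°C 4 min → 28°C 4 min. Male: exflagellation centres, brightfield x6. Female: Pfs25+ gametes, fluorescence, +24 h 28°C dark.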

[2] = system: P. falciparum male gametocytes; assay: P. falciparum Dual Gamete Formation Assay (PfDGFA), male readout (exflagellation); assay type: cell-based, Plasmodium falciparum NF54; settings: for Selectivity Ratio M: HepG2 Tox50 versus male IC50; for pIC50: PfDGFA, 24 h incubation with gametocytes before induction, exflagellation readout, read-out: Male IC50; for HitlevelM: number of replicates with >50% inhibition in the male readout
Method in brief: as §1

[3] = PfDGFA at 2µM, 24h preincubation with gametocytes, average of replicates
[4] = PfDGFA at 2µM, 24h preincubation with gametocytes, replicate R1
[5] = PfDGFA at 2µM, 24h preincubation with gametocytes, replicate R3
[6] = PfDGFA at 2µM, 24h preincubation with gametocytes, replicate R4
[7] = 2µM, 24h preincubation with gametocytes prior to induction of gametogenesis, average of replicates
[8] = 2µM, 24h preincubation with gametocytes prior to induction of gametogenesis, replicate R1
[9] = 2µM, 24h preincubation with gametocytes prior to induction of gametogenesis, replicate R3
[10] = 2µM, 24h preincubation with gametocytes prior to induction of gametogenesis, replicate R4
[11] = 2µM, 24h preincubation with gametocytes, average of replicates
[12] = 2µM, 24h preincubation with gametocytes, replicate R1
[13] = 2µM, 24h preincubation with gametocytes, replicate R3
[14] = 2µM, 24h preincubation with gametocytes, replicate R4
[15] = Plasmodium falciparum, 2µM, 24h preincubation with gametocytes, average of replicates, read-out: Average inhibition female (%)
[16] = Plasmodium falciparum, 2µM, 24h preincubation with gametocytes, replicate R1, read-out: % inhibition female (individual replicates) R1
[17] = Plasmodium falciparum, 2µM, 24h preincubation with gametocytes, replicate R2, read-out: % inhibition female (individual replicates) R2
[18] = Plasmodium falciparum, 2µM, 24h preincubation with gametocytes, replicate R3, read-out: % inhibition female (individual replicates) R3
[19] = Plasmodium falciparum, 2µM, 24h preincubation with gametocytes, replicate R4, read-out: % inhibition female (individual replicates) R4
[20] = Plasmodium falciparum, 2µM, 24h preincubation with gametocytes, average of replicates, read-out: Average inhibition male (%)
[21] = Plasmodium falciparum, 2µM, 24h preincubation with gametocytes, replicate R1, read-out: % inhibition male (individual replicates) R1
[22] = Plasmodium falciparum, 2µM, 24h preincubation with gametocytes, replicate R2, read-out: % inhibition male (individual replicates) R2
[23] = Plasmodium falciparum, 2µM, 24h preincubation with gametocytes, replicate R3, read-out: % inhibition male (individual replicates) R3
[24] = Plasmodium falciparum, 2µM, 24h preincubation with gametocytes, replicate R4, read-out: % inhibition male (individual replicates) R4

SMILES	Tox50 (HepG2 cells) [µM]	Selectivity ratio F [1]	Average inhibition female (%) [1, 3] [%]	% inhibition female (individual replicates) R1 [1, 4] [%]	% inhibition female (individual replicates) R3 [1, 5] [%]	% inhibition female (individual replicates) R4 [1, 6] [%]	pIC50 [1]	HitlevelF ([1]; 2µM)	Selectivity Ratio M [2]	Average inhibition male (%) [2, 3] [%]	% inhibition male (individual replicates) R1 [2, 4] [%]	% inhibition male (individual replicates) R3 [2, 5] [%]	% inhibition male (individual replicates) R4 [2, 6] [%]	pIC50 [2]	HitlevelM ([2]; 2µM)	Average inhibition female (%) [1, 11] [%]	% inhibition female (individual replicates) R1 [1, 12] [%]	% inhibition female (individual replicates) R3 [1, 13] [%]	% inhibition female (individual replicates) R4 [1, 14] [%]	Average inhibition male (%) [2, 11] [%]	further results
CCCOc1ccc2ccccc2c1CNCCCCCCNCc1c(OCCC)ccc2ccccc12.CS(=O)(=O)O [TCMDC-137966]	3.43	1.2	25.2	28.6	7.7	20.1	5.54	0	1.77	79.0	79.2	56.4	86.2	5.71	4						
COc1ccccc1-c1nc2c(ccc3nc(N)nc(N)c32)[nH]1 [TCMDC-137976]	2.07	0.68	41.0	50.1	49.2	39.4	5.52	1	1.2	63.5	72.4	76.7	81.8	5.76	3						
CCOCn1c(-c2ccccc2)cc2c3c(N)nc(N)nc3ccc21 [TCMDC-137979]	1.17	1.17					6.00		0.71					5.78							Average inhibition female (%) [1, 7]: 82.0%; % inhibition female (individual replicates) R1 [1, 8]: 76.5%; % inhibition female (individual replicates) R3 [1, 9]: 82.3%; % inhibition female (individual replicates) R4 [1, 10]: 83.9%; HitlevelF ([1]; 2µM, 24h preincubation): 4; Average inhibition male (%) [2, 7]: 42.1%; % inhibition male (individual replicates) R1 [2, 8]: 55.5%; % inhibition male (individual replicates) R3 [2, 9]: 46.9%; % inhibition male (individual replicates) R4 [2, 10]: 49.0%; HitlevelM ([2]; 2µM, 24h preincubation): 1
CCOc1cc(OCC)c2ccccc2c1CNCCCCCCNCc1c(OCC)cc(OCC)c2ccccc12.CS(=O)(=O)O [TCMDC-137982]	2.84	1.67					5.77		2.69					5.97		82.9	76.1	92.8	83.8	97.2	% inhibition male (individual replicates) R1 [2, 12]: 95.9%; % inhibition male (individual replicates) R3 [2, 13]: 96.2%; % inhibition male (individual replicates) R4 [2, 14]: 100.2%
CC(C)(C)c1ccc(-c2nc3c(ccc4nc(N)nc(N)c43)[nH]2)cc1.Cl [TCMDC-137984]	3.25	3.35							17.94												inhibition at 2 µM [1, 15]: 42.3%; inhibition at 2 µM [1, 16]: 35.1%; inhibition at 2 µM [1, 17]: 50%; inhibition at 2 µM [1, 18]: 42.4%; inhibition at 2 µM [1, 19]: 41.7%; pIC50 ([1]; Plasmodium falciparum): 6.01; inhibition at 2 µM [2, 20]: 99.4%; inhibition at 2 µM [2, 21]: 99.9%; inhibition at 2 µM [2, 22]: 99.6%; inhibition at 2 µM [2, 23]: 98%; inhibition at 2 µM [2, 24]: 100%; pIC50 ([2]; Plasmodium falciparum): 6.74
Cn1c(-c2ccccc2)cc2c3c(N)nc(N)nc3ccc21 [TCMDC-137985]	4.6	1.39	1.3	15.4	-11.7	3.6	5.48	0	2.45	67.4	74.3	56.6	64.0	5.73	4						
CCCCCCCCN1CCN(CCCCCCNc2c3ccccc3nc3ccccc23)CC1.Cl [TCMDC-138015]	4.12	2.15	83.0	79.8	90.0	82.3	5.72	4	2.34	63.5	58.8	66.4	81.8	5.75	3						
Cc1ccc(S(=O)(=O)N(CCCNCc2cccc(O)c2)c2ccccc2)cc1 [TCMDC-138022]	31.57	4.12							100.82												inhibition at 2 µM [1, 15]: 63.8%; inhibition at 2 µM [1, 16]: 52.6%; inhibition at 2 µM [1, 17]: 60%; inhibition at 2 µM [1, 18]: 91.9%; inhibition at 2 µM [1, 19]: 50.6%; pIC50 ([1]; Plasmodium falciparum): 5.12; inhibition at 2 µM [2, 20]: 98.1%; inhibition at 2 µM [2, 21]: 102%; inhibition at 2 µM [2, 22]: 101%; inhibition at 2 µM [2, 23]: 97.3%; inhibition at 2 µM [2, 24]: 91.8%; pIC50 ([2]; Plasmodium falciparum): 6.51
CCN(CC)CC(O)CNc1c2ccc([N+](=O)[O-])cc2nc2cc(OC)c(OC)cc12.Cl (centres unmarked) [TCMDC-138079]	2.63	0.86					5.51		6.3					6.38		25.5	28.2	21.9	25.2	95.0	% inhibition male (individual replicates) R1 [2, 12]: 93.0%; % inhibition male (individual replicates) R4 [2, 14]: 92.3%
CCOC(=O)c1cc2c(CCN3C(=O)c4ccccc4C3=O)cn(C)c2cc1-c1ccncc1 [TCMDC-138099]	1.57	1					5.81		2.3					6.17		93.8	94.3	100.9	92.0	101.6	% inhibition male (individual replicates) R1 [2, 12]: 102.0%; % inhibition male (individual replicates) R3 [2, 13]: 99.5%; % inhibition male (individual replicates) R4 [2, 14]: 102.4%
